Measurements taken from US9249129B2, “Morpholino substituted urea derivatives as mTOR inhibitors” (CELLZOME LIMITED, priority 2010, dated 2016).

Key:
Test in all cases: kinobeads assay with mass spectrometry detection of kinases (kinase selectivity profile)
Assay type in all cases: binding
kinases (kinome) [1] = target: T1, kinases (kinome) (Homo sapiens, UniProt P42356); conditions: PIK4Ca (Lipid Kinase), IPI00070943
T1 construct: determined in kinobeads assays with mass spectrometry detection of kinases as described previously; endogenous in cells; host or cells: cell lysate
T1 sequence (P42356 whole entry): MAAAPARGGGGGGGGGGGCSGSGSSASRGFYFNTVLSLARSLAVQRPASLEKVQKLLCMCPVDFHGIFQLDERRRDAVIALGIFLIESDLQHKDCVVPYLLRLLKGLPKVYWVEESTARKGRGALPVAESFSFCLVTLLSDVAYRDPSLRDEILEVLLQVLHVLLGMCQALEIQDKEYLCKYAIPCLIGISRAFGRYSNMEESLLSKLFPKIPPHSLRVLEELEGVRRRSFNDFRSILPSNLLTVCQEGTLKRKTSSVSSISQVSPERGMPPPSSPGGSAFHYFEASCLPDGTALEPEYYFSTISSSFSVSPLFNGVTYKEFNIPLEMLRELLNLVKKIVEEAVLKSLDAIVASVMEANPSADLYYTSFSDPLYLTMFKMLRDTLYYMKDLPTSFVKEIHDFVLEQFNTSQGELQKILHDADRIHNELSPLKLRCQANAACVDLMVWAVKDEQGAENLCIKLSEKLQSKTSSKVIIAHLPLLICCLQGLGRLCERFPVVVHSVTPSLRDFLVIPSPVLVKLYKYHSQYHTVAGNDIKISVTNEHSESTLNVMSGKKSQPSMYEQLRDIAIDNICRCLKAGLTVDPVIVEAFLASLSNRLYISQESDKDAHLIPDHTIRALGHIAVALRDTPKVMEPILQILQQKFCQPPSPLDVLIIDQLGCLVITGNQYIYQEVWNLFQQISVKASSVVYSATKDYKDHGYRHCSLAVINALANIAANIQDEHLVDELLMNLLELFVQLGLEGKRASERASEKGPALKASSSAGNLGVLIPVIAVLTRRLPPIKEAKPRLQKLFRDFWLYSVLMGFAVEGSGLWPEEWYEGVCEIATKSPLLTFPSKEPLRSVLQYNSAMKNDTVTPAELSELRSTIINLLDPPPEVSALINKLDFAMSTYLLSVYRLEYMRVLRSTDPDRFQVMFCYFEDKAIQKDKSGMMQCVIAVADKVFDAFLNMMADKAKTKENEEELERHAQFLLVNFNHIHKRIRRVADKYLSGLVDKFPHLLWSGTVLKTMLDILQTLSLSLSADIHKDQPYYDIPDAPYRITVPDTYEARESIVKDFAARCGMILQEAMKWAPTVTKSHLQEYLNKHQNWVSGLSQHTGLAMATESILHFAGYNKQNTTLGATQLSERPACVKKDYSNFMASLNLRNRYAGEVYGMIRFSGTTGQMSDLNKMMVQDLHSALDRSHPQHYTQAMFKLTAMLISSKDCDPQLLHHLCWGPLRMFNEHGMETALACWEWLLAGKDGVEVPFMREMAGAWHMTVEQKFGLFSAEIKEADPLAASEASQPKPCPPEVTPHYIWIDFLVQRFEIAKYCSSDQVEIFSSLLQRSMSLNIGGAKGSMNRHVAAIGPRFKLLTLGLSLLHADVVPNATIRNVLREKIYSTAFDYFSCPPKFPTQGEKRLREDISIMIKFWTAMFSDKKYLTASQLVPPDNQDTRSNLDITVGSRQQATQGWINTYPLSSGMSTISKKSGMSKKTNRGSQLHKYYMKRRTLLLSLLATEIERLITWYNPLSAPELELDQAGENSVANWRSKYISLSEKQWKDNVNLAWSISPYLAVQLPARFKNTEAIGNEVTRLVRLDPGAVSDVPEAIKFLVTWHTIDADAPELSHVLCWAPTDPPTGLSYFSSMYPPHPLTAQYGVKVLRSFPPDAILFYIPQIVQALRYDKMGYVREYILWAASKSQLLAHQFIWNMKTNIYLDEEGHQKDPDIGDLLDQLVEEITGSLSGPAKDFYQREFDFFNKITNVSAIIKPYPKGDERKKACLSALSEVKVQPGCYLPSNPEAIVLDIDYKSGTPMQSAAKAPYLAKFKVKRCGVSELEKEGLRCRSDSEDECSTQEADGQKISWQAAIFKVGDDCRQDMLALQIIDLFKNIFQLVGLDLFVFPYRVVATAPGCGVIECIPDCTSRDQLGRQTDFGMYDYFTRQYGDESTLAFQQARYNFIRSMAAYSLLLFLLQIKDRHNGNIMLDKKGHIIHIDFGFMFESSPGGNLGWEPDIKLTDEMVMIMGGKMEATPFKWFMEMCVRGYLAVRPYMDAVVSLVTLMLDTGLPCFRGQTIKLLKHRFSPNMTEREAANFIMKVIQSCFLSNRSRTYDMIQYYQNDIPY
Text: (§1) The protein kinase complement of the human genome (the kinome) was described previously (Manning et al., 2002. Science 298(5600):1912-1934). Sequence accession numbers are defined by the International Protein Index (IPI) (Kersey et al., 2004. Proteomics 4(7):1985-1988).

kinases (kinome) [2] = target: T2, kinases (kinome) (Homo sapiens, UniProt Q9UBF8); conditions: PIK4Cb (Lipid Kinase), IPI00641770
T2 construct: determined in kinobeads assays with mass spectrometry detection of kinases as described previously; endogenous in cells; host or cells: cell lysate
T2 sequence (Q9UBF8 whole entry): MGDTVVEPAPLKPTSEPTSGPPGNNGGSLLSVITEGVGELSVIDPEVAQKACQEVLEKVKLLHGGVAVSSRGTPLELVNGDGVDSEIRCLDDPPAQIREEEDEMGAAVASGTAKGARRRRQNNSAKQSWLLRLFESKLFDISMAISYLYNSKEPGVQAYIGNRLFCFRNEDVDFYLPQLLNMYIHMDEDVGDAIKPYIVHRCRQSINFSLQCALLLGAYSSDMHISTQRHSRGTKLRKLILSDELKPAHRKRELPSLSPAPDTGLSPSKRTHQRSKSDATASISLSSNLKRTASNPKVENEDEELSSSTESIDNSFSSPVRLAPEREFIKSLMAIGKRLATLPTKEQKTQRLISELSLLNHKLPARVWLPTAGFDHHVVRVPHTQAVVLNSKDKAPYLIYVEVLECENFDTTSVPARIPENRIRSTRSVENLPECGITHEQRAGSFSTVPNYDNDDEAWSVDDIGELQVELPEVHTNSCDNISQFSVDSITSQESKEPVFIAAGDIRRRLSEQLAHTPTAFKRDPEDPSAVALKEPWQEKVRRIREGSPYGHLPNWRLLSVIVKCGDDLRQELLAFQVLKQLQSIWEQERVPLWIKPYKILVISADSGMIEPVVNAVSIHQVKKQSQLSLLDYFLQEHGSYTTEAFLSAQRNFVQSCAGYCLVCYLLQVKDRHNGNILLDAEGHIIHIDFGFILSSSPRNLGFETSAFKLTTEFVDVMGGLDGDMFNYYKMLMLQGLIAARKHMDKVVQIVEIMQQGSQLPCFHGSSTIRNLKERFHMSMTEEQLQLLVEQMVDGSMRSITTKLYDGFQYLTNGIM
Text: as §1

kinases (kinome) [3] = target: T3, kinases (kinome) (Homo sapiens, UniProt Q9Y2U5); conditions: MAP3K2 (STE), IPI00513803
T3 construct: determined in kinobeads assays with mass spectrometry detection of kinases as described previously; endogenous in cells; host or cells: cell lysate
T3 sequence (Q9Y2U5 1-619): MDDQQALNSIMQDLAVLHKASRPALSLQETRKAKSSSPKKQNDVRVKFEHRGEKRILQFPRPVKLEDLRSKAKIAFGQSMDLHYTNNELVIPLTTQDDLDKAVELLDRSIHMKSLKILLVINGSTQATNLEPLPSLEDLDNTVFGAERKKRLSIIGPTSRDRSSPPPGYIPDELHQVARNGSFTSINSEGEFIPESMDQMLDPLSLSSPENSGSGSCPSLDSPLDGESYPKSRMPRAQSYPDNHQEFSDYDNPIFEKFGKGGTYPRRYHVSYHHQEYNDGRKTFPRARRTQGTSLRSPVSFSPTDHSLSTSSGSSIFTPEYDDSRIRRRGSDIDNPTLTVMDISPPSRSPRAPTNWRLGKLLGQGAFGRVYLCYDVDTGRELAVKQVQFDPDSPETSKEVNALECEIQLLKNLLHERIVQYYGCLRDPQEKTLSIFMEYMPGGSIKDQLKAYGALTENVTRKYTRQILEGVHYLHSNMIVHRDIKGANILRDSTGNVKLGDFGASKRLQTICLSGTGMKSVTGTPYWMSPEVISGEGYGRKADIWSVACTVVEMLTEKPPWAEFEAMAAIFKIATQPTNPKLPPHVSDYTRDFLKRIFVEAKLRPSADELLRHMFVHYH
Text: as §1

kinases (kinome) [4] = target: T4, kinases (kinome) (Homo sapiens, UniProt Q86YV5); conditions: SgK223 (Other), IPI00739386
T4 construct: determined in kinobeads assays with mass spectrometry detection of kinases as described previously; endogenous in cells; host or cells: cell lysate
T4 sequence (Q86YV5 1-1406): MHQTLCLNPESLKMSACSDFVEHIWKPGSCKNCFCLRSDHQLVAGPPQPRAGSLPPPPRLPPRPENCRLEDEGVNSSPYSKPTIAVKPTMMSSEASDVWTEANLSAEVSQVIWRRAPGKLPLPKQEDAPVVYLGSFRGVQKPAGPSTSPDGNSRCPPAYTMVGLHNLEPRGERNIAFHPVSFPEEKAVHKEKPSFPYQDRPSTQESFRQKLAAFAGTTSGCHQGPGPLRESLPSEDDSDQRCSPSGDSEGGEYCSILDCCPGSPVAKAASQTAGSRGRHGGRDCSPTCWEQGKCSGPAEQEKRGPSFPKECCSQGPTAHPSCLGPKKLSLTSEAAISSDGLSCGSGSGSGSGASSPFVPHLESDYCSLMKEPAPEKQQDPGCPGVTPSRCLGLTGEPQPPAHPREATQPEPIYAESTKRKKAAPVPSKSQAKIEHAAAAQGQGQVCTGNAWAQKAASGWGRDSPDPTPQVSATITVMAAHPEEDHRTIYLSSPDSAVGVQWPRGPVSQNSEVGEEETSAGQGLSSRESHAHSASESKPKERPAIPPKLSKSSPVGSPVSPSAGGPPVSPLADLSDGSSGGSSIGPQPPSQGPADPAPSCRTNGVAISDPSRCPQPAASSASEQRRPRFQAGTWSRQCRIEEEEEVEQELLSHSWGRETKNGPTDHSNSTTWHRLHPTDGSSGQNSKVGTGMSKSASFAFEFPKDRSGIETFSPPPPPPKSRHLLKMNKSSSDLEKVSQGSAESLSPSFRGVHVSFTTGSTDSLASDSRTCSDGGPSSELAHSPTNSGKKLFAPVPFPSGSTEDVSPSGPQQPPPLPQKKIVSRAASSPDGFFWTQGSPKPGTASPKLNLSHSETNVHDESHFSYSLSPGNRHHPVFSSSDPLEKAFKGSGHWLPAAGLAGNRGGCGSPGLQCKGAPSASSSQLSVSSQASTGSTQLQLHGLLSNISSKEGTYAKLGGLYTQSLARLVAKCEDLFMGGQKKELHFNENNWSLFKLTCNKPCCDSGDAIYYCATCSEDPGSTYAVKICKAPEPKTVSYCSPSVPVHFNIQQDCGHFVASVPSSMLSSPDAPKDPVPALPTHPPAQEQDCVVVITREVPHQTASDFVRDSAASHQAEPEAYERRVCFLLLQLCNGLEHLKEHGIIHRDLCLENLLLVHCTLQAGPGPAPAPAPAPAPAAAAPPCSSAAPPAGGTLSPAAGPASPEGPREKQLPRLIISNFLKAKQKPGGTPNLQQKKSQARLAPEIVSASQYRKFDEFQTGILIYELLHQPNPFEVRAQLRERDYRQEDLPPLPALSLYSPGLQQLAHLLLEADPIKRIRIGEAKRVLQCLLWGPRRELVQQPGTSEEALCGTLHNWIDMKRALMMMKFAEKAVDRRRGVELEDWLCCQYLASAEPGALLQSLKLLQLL
Text: as §1

kinases (kinome) [5] = target: T5, kinases (kinome) (Homo sapiens, UniProt P10398); conditions: ARAF (TKL), IPI00020578
T5 construct: determined in kinobeads assays with mass spectrometry detection of kinases as described previously; endogenous in cells; host or cells: cell lysate
T5 sequence (P10398 1-606): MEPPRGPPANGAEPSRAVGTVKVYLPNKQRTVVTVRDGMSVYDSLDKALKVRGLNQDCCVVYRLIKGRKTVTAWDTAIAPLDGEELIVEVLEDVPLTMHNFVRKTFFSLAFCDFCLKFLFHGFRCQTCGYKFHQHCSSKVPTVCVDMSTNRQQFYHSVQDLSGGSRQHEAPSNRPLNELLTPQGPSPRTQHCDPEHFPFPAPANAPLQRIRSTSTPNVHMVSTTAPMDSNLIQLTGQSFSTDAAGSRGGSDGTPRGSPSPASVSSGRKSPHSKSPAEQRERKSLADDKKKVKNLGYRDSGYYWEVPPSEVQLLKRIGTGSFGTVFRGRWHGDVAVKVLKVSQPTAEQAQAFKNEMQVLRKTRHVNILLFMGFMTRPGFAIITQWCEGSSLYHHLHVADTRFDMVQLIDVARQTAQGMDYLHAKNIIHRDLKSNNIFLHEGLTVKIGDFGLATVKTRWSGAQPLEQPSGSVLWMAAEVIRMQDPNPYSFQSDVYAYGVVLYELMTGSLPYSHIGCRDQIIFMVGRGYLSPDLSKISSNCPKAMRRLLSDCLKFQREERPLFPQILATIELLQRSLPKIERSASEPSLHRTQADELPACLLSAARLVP
Text: as §1

Measured: IC50

C[C@H]1COCCN1c1nc(-c2ccc(NC(=O)N[C@H]3CCC[C@@H]3O)cc2)cc(-c2cc(F)ccc2S(C)(=O)=O)n1 [Example 76, 1-(4-(6-(5-fluoro-2-(methylsulfonyl)phenyl)-2-((S)-3-methylmorpholino)pyrimidin-4-yl)phenyl)-3-((1S,2S)-2-hydroxycyclopentyl)urea]
> 10 µM: all assays above

C[C@H]1COCCN1c1nc(-c2ccc(NC(=O)NC3CC3)cc2)cc(-c2ccccc2S(C)(=O)=O)n1 [Example 4, (S)-1-cyclopropyl-3-(4-(2-(3-methylmorpholino)-6-(2-(methylsulfonyl)phenyl)pyrimidin-4-yl)phenyl)urea]
not listed: kinases (kinome) [4]
> 10 µM: all other assays above

C[C@H]1COCCN1c1cc(-c2ccccc2S(C)(=O)=O)nc(-c2ccc(NC(=O)NC3CC3)cc2)n1 [Example 6, (S)-1-cyclopropyl-3-(4-(4-(3-methylmorpholino)-6-(2-(methylsulfonyl)phenyl)pyrimidin-2-yl)phenyl)urea]
> 10 µM: all assays above

C[C@H]1COCCN1c1cc(-c2ccccn2)nc(-c2ccc(NC(=O)NCCO)cc2)n1 [Example 43, (S)-1-(2-hydroxyethyl)-3-(4-(4-(3-methylmorpholino)-6-(pyridin-2-yl)pyrimidin-2-yl)phenyl)urea]
> 10 µM: all assays above

C[C@H]1COCCN1c1nc(-c2ccc(NC(=O)NC3CC3)cc2)cc(-c2cccnc2S(C)(=O)=O)n1 [Example 46, (S)-1-cyclopropyl-3-(4-(2-(3-methylmorpholino)-6-(2-(methylsulfonyl)pyridin-3-yl)pyrimidin-4-yl)phenyl)urea]
> 10 µM: all assays above

CCNC(=O)Nc1ccc(-c2cc(-c3ccccc3C#N)nc(N3CCOC[C@@H]3C)n2)cc1 [Example 8, (S)-1-(4-(6-(2-cyanophenyl)-2-(3-methylmorpholino)pyrimidin-4-yl)phenyl)-3-ethylurea]
> 10 µM: all assays above

C[C@H]1COCCN1c1nc(-c2ccc(NC(=O)NC3CC3)cc2)cc(-c2cc(F)ccc2S(C)(=O)=O)n1 [Example 40, (S)-1-cyclopropyl-3-(4-(6-(5-fluoro-2-(methylsulfonyl)phenyl)-2-(3-methylmorpholino)pyrimidin-4-yl)phenyl)urea]
> 10 µM: all assays above
